Blank lines part the entries; values can stand above or below the molecule they belong to.
System: 885512-296-R-J2-PDC complex spheroid growth, % test/control
Assay: Anticancer human tumor 885512-296-R-J2-PDC patient-derived breast carcinoma cell line growth inhibition [Asc]
Conditions: for IC50: curve of first compound; for viability, T/C: stronger effect = lower value
Summary of the method: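 Stromal components (HUVEC and hMSC) are co-assembled with the cancer cells into multicellular spheroids. Drugs are then added singly or paired, at concentrations falling by half-log increments from a clinically achievable maximum, capped at 10 microM without known Cmax.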
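Also: spheroids exposed to compounds for seven days.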
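For viability, T/C in this document: 100% = DMSO vehicle control wells.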

- IC50 (second compound 0.1 µM): > 10000 nM
- IC50 (second compound 0.316 µM): > 10000 nM
- IC50 (second compound 1 µM): > 10000 nM
- IC50 (second compound 3.16 µM): > 10000 nM
- IC50 (second compound 10 µM): > 10000 nM
SMILES: C#Cc1c(F)ccc2cc(O)cc(-c3ncc4c(N5CC6CCC(C5)N6)nc(OCC56CCCN5CC(F)C6)nc4c3F)c12 (stereo not given) + Cc1c(S(C)(=O)=O)c(-c2cc(F)cc(N3CCN(c4ccc(NS(=O)(=O)c5ccc(NC(CCN6CCC(C(=O)OCCCP(=O)(O)O)CC6)CSc6ccccc6)c(S(=O)(=O)C(F)(F)F)c5)cc4)CC3)c2)c(-c2ccc(Cl)cc2)n1C(C)C
- viability, T/C (second compound 0.1 µM, first compound 0.0316 µM): 96.9%
- viability, T/C (second compound 0.1 µM, first compound 0.1 µM): 78.9%
- viability, T/C (second compound 0.1 µM, first compound 0.316 µM): 85.1%
- viability, T/C (second compound 0.1 µM, first compound 1 µM): 77.4%
- viability, T/C (second compound 0.1 µM, first compound 3.16 µM): 74.1%
- viability, T/C (second compound 0.1 µM, first compound 10 µM): 70.9%
- viability, T/C (second compound 0.316 µM, first compound 0.0316 µM): 96.8%
- viability, T/C (second compound 0.316 µM, first compound 0.1 µM): 105%
- viability, T/C (second compound 0.316 µM, first compound 0.316 µM): 90.9%
- viability, T/C (second compound 0.316 µM, first compound 1 µM): 72.4%
- viability, T/C (second compound 0.316 µM, first compound 3.16 µM): 95.4%
- viability, T/C (second compound 0.316 µM, first compound 10 µM): 71%
- viability, T/C (second compound 1 µM, first compound 0.0316 µM): 88.3%
- viability, T/C (second compound 1 µM, first compound 0.1 µM): 82.9%
- viability, T/C (second compound 1 µM, first compound 0.316 µM): 93%
- viability, T/C (second compound 1 µM, first compound 1 µM): 66.6%
- viability, T/C (second compound 1 µM, first compound 3.16 µM): 86%
- viability, T/C (second compound 1 µM, first compound 10 µM): 66.9%
- viability, T/C (second compound 3.16 µM, first compound 0.0316 µM): 88.3%
- viability, T/C (second compound 3.16 µM, first compound 0.1 µM): 112%
- viability, T/C (second compound 3.16 µM, first compound 0.316 µM): 82.7%
- viability, T/C (second compound 3.16 µM, first compound 1 µM): 76.5%
- viability, T/C (second compound 3.16 µM, first compound 3.16 µM): 79.8%
- viability, T/C (second compound 3.16 µM, first compound 10 µM): 76.4%
- viability, T/C (second compound 10 µM, first compound 0.0316 µM): 115%
- viability, T/C (second compound 10 µM, first compound 0.1 µM): 112%
- viability, T/C (second compound 10 µM, first compound 0.316 µM): 101%
- viability, T/C (second compound 10 µM, first compound 1 µM): 117%
- viability, T/C (second compound 10 µM, first compound 3.16 µM): 103%
- viability, T/C (second compound 10 µM, first compound 10 µM): 51.4%

- IC50 (second compound 0.1 µM): 275 nM
- IC50 (second compound 0.316 µM): 275 nM
- IC50 (second compound 1 µM): 172 nM
- IC50 (second compound 3.16 µM): 167 nM
- IC50 (second compound 10 µM): > 3000 nM
SMILES: Cc1nc(N2CCC3(CC2)COC(C)C3N)c(CO)nc1Sc1ccnc(N)c1Cl (stereo not given) + Cc1c(S(C)(=O)=O)c(-c2cc(F)cc(N3CCN(c4ccc(NS(=O)(=O)c5ccc(NC(CCN6CCC(C(=O)OCCCP(=O)(O)O)CC6)CSc6ccccc6)c(S(=O)(=O)C(F)(F)F)c5)cc4)CC3)c2)c(-c2ccc(Cl)cc2)n1C(C)C
- viability, T/C (second compound 0.1 µM, first compound 0.00949 µM): 83.7%
- viability, T/C (second compound 0.1 µM, first compound 0.03 µM): 67.7%
- viability, T/C (second compound 0.1 µM, first compound 0.0949 µM): 58%
- viability, T/C (second compound 0.1 µM, first compound 0.3 µM): 50.4%
- viability, T/C (second compound 0.1 µM, first compound 0.949 µM): 42.1%
- viability, T/C (second compound 0.1 µM, first compound 3 µM): 32.4%
- viability, T/C (second compound 0.316 µM, first compound 0.00949 µM): 76.5%
- viability, T/C (second compound 0.316 µM, first compound 0.03 µM): 63.7%
- viability, T/C (second compound 0.316 µM, first compound 0.0949 µM): 62.7%
- viability, T/C (second compound 0.316 µM, first compound 0.3 µM): 46.2%
- viability, T/C (second compound 0.316 µM, first compound 0.949 µM): 42.8%
- viability, T/C (second compound 0.316 µM, first compound 3 µM): 37%
- viability, T/C (second compound 1 µM, first compound 0.00949 µM): 76.7%
- viability, T/C (second compound 1 µM, first compound 0.03 µM): 60.2%
- viability, T/C (second compound 1 µM, first compound 0.0949 µM): 59.1%
- viability, T/C (second compound 1 µM, first compound 0.3 µM): 41.8%
- viability, T/C (second compound 1 µM, first compound 0.949 µM): 42.6%
- viability, T/C (second compound 1 µM, first compound 3 µM): 34.7%
- viability, T/C (second compound 3.16 µM, first compound 0.00949 µM): 94.5%
- viability, T/C (second compound 3.16 µM, first compound 0.03 µM): 67.4%
- viability, T/C (second compound 3.16 µM, first compound 0.0949 µM): 56.8%
- viability, T/C (second compound 3.16 µM, first compound 0.3 µM): 45.4%
- viability, T/C (second compound 3.16 µM, first compound 0.949 µM): 39.5%
- viability, T/C (second compound 3.16 µM, first compound 3 µM): 33.4%
- viability, T/C (second compound 10 µM, first compound 0.00949 µM): 117%
- viability, T/C (second compound 10 µM, first compound 0.03 µM): 110%
- viability, T/C (second compound 10 µM, first compound 0.0949 µM): 96.2%
- viability, T/C (second compound 10 µM, first compound 0.3 µM): 113%
- viability, T/C (second compound 10 µM, first compound 0.949 µM): 95.9%
- viability, T/C (second compound 10 µM, first compound 3 µM): 85.9%
